PubChem BioAssay (NCI)
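Tested at 5 concentrations; 48 h exposure; 96-well plates; endpoints linearly interpolated, else capped at highest concentration. GI50 is the concentration that inhibits growth by half. TGI: concentration producing complete growth inhibition.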

Legend:
Assay in all cases: NCI tumour cell line growth inhibition, 48 h
786-0 renal = system: 786-0 renal
A498 renal = system: A498 renal
ACHN renal = system: ACHN renal
DU-145 prostate = system: DU-145 prostate
HCT-116 colon = system: HCT-116 colon
HS 578T breast = system: HS 578T breast
MOLT-4 leukemia = system: MOLT-4 leukemia
NCI-H226 lung = system: NCI-H226 lung
NCI/ADR-RES ovarian = system: NCI/ADR-RES ovarian
UACC-257 melanoma = system: UACC-257 melanoma

| SMILES | GI50 (786-0 renal) | TGI (786-0 renal) | GI50 (A498 renal) | TGI (A498 renal) | GI50 (ACHN renal) | TGI (ACHN renal) | GI50 (DU-145 prostate) | TGI (DU-145 prostate) | GI50 (HCT-116 colon) | TGI (HCT-116 colon) | GI50 (HS 578T breast) | TGI (HS 578T breast) | GI50 (MOLT-4 leukemia) | TGI (MOLT-4 leukemia) | GI50 (NCI-H226 lung) | TGI (NCI-H226 lung) | GI50 (NCI/ADR-RES ovarian) | TGI (NCI/ADR-RES ovarian) | GI50 (UACC-257 melanoma) | TGI (UACC-257 melanoma) |
| --- | --- | --- | --- | --- | --- | --- | --- | --- | --- | --- | --- | --- | --- | --- | --- | --- | --- | --- | --- | --- |
| CS(=O)(=O)N(c1cc(-c2ccc3ncnc(Nc4ccc(F)c(Cl)c4)c3c2)cnc1Cl)S(C)(=O)=O | 1580 nM | > 26.4 µM | 342 nM | 1.56 µM | 1110 nM | 12.4 µM | 1180 nM | 24.9 µM | 1680 nM | 6.7 µM | 218 nM | 2.61 µM | 1180 nM | 7.74 µM | 1900 nM | 24.3 µM | 2540 nM | 20.9 µM | 1110 nM | 14.5 µM |
| C/C=C(\C)C(=O)OC1/C=C(\C)CC/C=C(\C)CC2OC(=O)C(C)(OC(C)=O)C12 (centres undefined) |  | > 100 µM |  | > 100 µM |  | > 100 µM |  | > 100 µM |  | > 100 µM |  | > 100 µM |  | > 100 µM |  | > 100 µM |  | > 100 µM |  | > 100 µM |
| Nc1cccc2c1C(=O)c1cccc(NC(=O)c3ccccc3)c1C2=O | 646 nM | 15.7 µM | 306 nM | 6.56 µM | 590 nM | > 100 µM | 561 nM | > 22.6 µM | 401 nM | 5.17 µM | 412 nM | > 53.1 µM | 751 nM | > 100 µM | 1700 nM | > 100 µM | 212 nM |  | 614 nM | 64.8 µM |
| Cc1cccc2c1[nH]c(=O)c1c3ccccc3cn21 | 5920 nM | 32.2 µM | 16100 nM | 42.1 µM | 4080 nM | 22.5 µM | 5260 nM | 17.6 µM | 2690 nM | 11.7 µM | 21800 nM | 64.4 µM | 1810 nM | 5.56 µM | 3250 nM | 27.6 µM | 12100 nM | 34.8 µM | 16600 nM | 94.4 µM |
